Assay results as given in US9426986B2, “Hyperbranched polycarbonates for solubilizing poorly soluble active substances” (BASF SE, priority 2009, dated 2016).
Converted amounts (≈) assume the structure as drawn.

What was measured:
[1] = Solubilization experiments, general procedure 1 (active ingredient content by UV spectroscopy or HPLC); settings: pH 7, aqueous buffer, thermodynamic from solid
Protocol: Approximately 2 g of polymer were weighed out into a 50 mL glass beaker. Then 0.2 g of each active ingredient was weighed into the batch to give a supersaturated solution. […] The mixture was then stirred at room temperature for 72 hours, using a magnetic stirrer. After a rest time of one hour, unsolubilized active ingredient was removed by filtration. The resulting clear or opaque solution was then analyzed for its active ingredient content by means of UV spectroscopy or HPLC.

[2] = Protocol: Approximately 100 mg of polymer were weighed out into a 50 mL glass beaker and dissolved in 9.900 g of distilled water. Then 100 mg of each active ingredient was weighed into the batch to give a supersaturated solution. The mixture was then stirred at room temperature for 24 hours, using a magnetic stirrer. After a rest time of one hour, unsolubilized active ingredient was removed by centrifuging. The resulting clear or opaque solution was then analyzed for its active ingredient content by means of UV spectroscopy.
The solubility was determined as described in procedure 2.

Solubility of Fipronil in the presence of polymer [2] [mg/L]	Compound	solubility at 72 h [1] [µg/mL]
	NC(=O)N1c2ccccc2C=Cc2ccccc21 [Carbamazepine]	140 (≈ 593 µM)
	Clc1ccccc1C(c1ccccc1)(c1ccccc1)n1ccnc1 [Clotrimazole]	< 100
	CN1C(C(=O)Nc2ccccn2)=C(O)c2ccccc2S1(=O)=O [Piroxicam]	420 (≈ 1270 µM)
6	polyethylene glycol monomethyl ether [PEG monomethyl ether]	
